Data from patent US20080153850A1, “Adamantyl Derivates as P2x7 Receptor Antagonists” (AstraZeneca AB, priority 2004, published 2008).

Key:
[1] = target: T1, P2X7 receptor (Homo sapiens, UniProt Q99572); assay: P2X7 receptor antagonist test: bbATP-induced ethidium bromide fluorescence in THP-1 cells; type: cell-based; details: 10^-5M bbATP agonist, 10^-4M ethidium bromide, 37° C. one hour, negative log of concentration reducing bbATP agonist activity by 50%
T1 construct: 200 μl of a suspension of THP-1 cells; endogenous in cells; host or cells: THP-1 cells
T1 sequence (Q99572 1-595): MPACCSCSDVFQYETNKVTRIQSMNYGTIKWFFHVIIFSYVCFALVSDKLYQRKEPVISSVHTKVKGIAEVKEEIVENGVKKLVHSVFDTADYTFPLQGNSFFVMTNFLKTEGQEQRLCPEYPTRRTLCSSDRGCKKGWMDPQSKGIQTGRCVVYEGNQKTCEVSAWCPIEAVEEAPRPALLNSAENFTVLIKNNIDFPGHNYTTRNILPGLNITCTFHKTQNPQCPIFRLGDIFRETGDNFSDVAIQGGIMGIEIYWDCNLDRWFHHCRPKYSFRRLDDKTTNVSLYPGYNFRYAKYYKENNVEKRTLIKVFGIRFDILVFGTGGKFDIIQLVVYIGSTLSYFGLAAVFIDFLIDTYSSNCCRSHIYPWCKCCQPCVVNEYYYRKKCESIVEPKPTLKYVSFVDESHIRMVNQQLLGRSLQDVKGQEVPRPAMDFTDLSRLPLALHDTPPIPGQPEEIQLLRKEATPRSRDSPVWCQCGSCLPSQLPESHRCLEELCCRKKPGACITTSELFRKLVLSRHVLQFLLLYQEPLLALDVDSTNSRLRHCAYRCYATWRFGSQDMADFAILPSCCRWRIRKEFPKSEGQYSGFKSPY
Method: Consequently, when the receptor is activated using bbATP in the presence of ethidium bromide (a fluorescent DNA probe), an increase in the fluorescence of intracellular DNA-bound ethidium bromide is observed. The increase in fluorescence can be used as a measure of P2X7 receptor activation and therefore to quantify the effect of a compound on the P2X7 receptor.
In this manner, each of the title compounds of the Examples was tested for antagonist activity at the P2X7 receptor. […] The plate was covered with a plastics sheet and incubated at 37° C. for one hour. The plate was then read in a Perkin-Elmer fluorescent plate reader, excitation 520 nm, emission 595 nm, slit widths: Ex 15 nm, Em 20 nm. For the purposes of comparison, bbATP (a P2X7 receptor agonist) and pyridoxal 5-phosphate (a P2X7 receptor antagonist) were used separately in the test as controls. From the readings obtained, a pIC50 figure was calculated for each test compound, this figure being the negative logarithm of the concentration of test compound necessary to reduce the bbATP agonist activity by 50%.

IC50 [1] [nM] | melting point [°C] | Structure (SMILES)
316 | – | O=C(O)c1ccc(-c2ccc(Cl)c(C(=O)NCC34CC5CC(CC(C5)C3)C4)c2)cc1 [Example 1, 4′-Chloro-3′-[[(tricyclo[3.3.1.1^3,7]dec-1-ylmethyl)amino]carbonyl]-[1,1′-biphenyl]-4-carboxylic acid]
– | 220 to 225 | O=C(O)c1cc(C(F)(F)F)cc(-c2ccc(Cl)c(C(=O)NCC34CC5CC(CC(C5)C3)C4)c2)n1 [Example 72, 6-[4-Chloro-3-[[(tricyclo[3.3.1.1^3,7]dec-1-ylmethyl)amino]carbonyl]phenyl]-4-(trifluoromethyl)-2-pyridinecarboxylic acid]
– | 172 to 177 | CC(=O)Nc1ccc(-c2ccc(Cl)c(C(=O)NCC34CC5CC(CC(C5)C3)C4)c2)c(C)n1 [Example 73, 5-[6-(Acetylamino)-2-methyl-3-pyridinyl]-2-chloro-N-(tricyclo[3.3.1.1^3,7]dec-1-ylmethyl)-benzamide]
